Test results from ChEMBL document CHEMBL1909046, “DrugMatrix in vitro pharmacology data”.

How the values were obtained:
[1] = target: Sodium-dependent dopamine transporter (Homo sapiens, UniProt Q01959); experiment: DRUGMATRIX: Dopamine Transporter radioligand binding (ligand: [125I] RTI-55); format: cell membranes, CHO-K1, Membrane; settings: Not Active = under 50% inhibition at 10 µM
[2] = target: T1, Neuropeptide Y receptor type 1 (Homo sapiens, UniProt P25929); format: cell membranes, Membrane; settings: sk-n-mc; note: in other assays of this panel Not Active means under 50% inhibition at 10 µM
T1 sequence (P25929 whole entry): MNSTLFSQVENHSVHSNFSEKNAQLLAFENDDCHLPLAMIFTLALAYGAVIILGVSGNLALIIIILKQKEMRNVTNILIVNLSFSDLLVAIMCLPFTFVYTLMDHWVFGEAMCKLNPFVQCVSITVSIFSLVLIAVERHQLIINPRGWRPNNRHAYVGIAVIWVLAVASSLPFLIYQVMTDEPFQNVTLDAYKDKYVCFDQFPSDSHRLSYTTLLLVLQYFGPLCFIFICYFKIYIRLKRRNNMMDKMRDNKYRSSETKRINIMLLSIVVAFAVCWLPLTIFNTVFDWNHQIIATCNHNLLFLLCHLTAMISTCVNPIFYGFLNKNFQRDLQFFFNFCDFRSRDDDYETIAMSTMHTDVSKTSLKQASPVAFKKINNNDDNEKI

Carbonic anhydrase 2 = Carbonic anhydrase 2 (Homo sapiens, UniProt P00918); experiment: DRUGMATRIX: Carbonic Anhydrase II enzyme inhibition (substrate: 4-Nitrophenyl acetate (4-NPA)); format: tissue-based, Erythrocyte; settings: erythrocyte; Not Active = under 50% inhibition at 10 µM
[3] = target: Receptor tyrosine-protein kinase erbB-2 (Homo sapiens, UniProt P04626); experiment: biochemical; format: cell-based, Insect cells;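 note: inhibition of HER2 kinase enzyme activity, measured with Poly(Glu:Tyr) as the phosphorylation substrate; in other assays of this panel Not Active means under 50% inhibition at 10 µM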
Receptor tyrosine-protein kinase erbB-2, sequence (P04626 whole entry): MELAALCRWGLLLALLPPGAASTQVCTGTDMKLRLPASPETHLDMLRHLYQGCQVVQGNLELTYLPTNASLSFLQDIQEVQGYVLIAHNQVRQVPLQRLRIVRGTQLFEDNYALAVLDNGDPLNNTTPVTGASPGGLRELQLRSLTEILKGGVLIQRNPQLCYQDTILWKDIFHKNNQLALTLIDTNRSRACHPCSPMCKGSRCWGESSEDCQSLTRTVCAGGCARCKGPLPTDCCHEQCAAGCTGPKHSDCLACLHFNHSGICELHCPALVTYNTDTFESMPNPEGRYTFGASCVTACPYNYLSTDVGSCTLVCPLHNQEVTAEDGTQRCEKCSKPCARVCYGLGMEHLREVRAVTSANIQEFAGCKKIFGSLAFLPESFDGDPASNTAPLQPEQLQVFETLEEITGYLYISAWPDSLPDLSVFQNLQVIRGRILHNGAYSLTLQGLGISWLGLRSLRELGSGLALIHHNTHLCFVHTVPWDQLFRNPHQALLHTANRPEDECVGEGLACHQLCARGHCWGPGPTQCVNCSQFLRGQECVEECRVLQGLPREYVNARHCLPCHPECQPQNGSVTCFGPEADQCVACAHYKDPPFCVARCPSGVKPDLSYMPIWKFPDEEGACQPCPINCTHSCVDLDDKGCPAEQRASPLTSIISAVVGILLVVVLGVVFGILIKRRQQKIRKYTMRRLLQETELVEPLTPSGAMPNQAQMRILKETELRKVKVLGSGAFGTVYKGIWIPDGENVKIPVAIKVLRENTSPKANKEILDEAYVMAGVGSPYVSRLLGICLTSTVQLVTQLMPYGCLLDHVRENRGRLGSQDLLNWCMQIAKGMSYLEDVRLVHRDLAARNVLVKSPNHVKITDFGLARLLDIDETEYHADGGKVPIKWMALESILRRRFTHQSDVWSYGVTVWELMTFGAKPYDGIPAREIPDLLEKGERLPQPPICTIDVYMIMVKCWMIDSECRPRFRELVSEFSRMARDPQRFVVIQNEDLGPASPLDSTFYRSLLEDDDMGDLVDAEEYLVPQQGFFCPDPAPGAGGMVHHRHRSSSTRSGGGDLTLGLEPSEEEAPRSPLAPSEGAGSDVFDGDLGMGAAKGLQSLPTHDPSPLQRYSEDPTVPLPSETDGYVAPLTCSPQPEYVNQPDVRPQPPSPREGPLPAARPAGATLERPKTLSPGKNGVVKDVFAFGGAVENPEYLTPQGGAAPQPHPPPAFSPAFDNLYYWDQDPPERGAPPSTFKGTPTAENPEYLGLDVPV

[4] = DRUGMATRIX: Phorbol Ester radioligand binding (ligand: [3H] PDBu); format: cell membranes, Mus musculus, ICR, Brain, Membrane; settings: Not Active = under 50% inhibition at 10 µM
Neutrophil elastase = target: T2, Neutrophil elastase (Homo sapiens, UniProt P08246); format: tissue-based;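 note: inhibition of neutrophil elastase enzyme activity, measured with a p-nitroanilide-linked peptide substrate; in other assays of this panel Not Active means under 50% inhibition at 10 µM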
T2 sequence (P08246 whole entry): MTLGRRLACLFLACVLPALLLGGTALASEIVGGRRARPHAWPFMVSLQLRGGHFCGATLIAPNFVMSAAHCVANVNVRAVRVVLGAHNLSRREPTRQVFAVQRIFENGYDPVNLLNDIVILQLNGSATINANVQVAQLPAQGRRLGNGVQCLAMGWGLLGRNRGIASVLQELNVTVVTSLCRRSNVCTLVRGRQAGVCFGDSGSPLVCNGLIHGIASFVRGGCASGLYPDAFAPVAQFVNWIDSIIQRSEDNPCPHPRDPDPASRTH

[5] = target: Tyrosine-protein kinase Fyn (Homo sapiens, UniProt P06241); experiment: biochemical; format: cell-based, Insect cells;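 note: enzymatic inhibition of Fyn kinase activity measured with Poly(Glu:Tyr) as the phosphorylation substrate; in other assays of this panel Not Active means under 50% inhibition at 10 µM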
Tyrosine-protein kinase Fyn, sequence (P06241 whole entry): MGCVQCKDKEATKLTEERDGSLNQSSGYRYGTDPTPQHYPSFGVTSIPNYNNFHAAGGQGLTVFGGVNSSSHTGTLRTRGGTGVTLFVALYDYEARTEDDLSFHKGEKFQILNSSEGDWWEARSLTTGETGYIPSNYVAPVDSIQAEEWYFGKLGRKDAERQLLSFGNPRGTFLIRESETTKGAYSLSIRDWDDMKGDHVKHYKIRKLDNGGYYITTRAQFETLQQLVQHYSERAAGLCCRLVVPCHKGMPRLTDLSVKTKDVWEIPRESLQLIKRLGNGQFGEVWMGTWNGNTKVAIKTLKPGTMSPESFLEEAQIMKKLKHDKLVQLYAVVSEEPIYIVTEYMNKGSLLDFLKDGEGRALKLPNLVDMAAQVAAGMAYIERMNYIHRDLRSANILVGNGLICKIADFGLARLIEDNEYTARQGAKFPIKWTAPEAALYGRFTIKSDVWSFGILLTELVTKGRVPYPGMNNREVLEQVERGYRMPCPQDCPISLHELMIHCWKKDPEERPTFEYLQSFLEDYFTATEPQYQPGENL

Sodium-dependent dopamine transporter, sequence (Q01959 whole entry): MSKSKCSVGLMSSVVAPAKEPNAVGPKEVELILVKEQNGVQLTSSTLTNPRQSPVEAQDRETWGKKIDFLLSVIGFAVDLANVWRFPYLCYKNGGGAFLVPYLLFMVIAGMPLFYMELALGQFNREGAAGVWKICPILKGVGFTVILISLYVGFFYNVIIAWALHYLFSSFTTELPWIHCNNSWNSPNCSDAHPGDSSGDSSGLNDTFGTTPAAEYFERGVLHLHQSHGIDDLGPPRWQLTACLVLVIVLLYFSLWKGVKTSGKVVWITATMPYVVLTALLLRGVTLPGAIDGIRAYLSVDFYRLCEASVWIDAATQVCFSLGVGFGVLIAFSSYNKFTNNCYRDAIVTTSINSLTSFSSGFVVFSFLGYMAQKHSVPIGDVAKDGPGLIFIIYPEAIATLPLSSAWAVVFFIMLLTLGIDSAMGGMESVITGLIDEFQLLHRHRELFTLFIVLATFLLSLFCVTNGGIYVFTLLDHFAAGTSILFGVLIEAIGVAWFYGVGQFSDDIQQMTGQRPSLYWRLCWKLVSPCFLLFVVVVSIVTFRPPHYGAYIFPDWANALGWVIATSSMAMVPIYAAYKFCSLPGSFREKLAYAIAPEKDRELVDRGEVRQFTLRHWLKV

Structure (SMILES)	IC50 ([1]; cho-k1)	IC50 [2]	IC50 (Carbonic anhydrase 2)	IC50 ([3]; insect cells)	IC50 [4]	Ki [4]	IC50 (Neutrophil elastase)	IC50 ([5]; insect cells)	Ki (Carbonic anhydrase 2)	IC50 ([5]; read-out: IC50) [µM]	IC50 ([1]; read-out: IC50) [µM]	Ki ([1]; read-out: Ki) [µM]	IC50 ([3]; read-out: IC50) [µM]	IC50 [5] [µM]
CC(=O)OCC(=O)[C@@]1(O)CC[C@H]2[C@@H]3CCC4=CC(=O)CC[C@]4(C)[C@H]3C(=O)C[C@@]21C [CORTISONE ACETATE]	Not Active	Not Active	Not Active	Not Active	Not Active	Not Active	Not Active	Not Active						
CCN1CC(CCN2CCOCC2)C(c2ccccc2)(c2ccccc2)C1=O (stereo unspecified) [DOXAPRAM]	Not Active	Not Active		Not Active	Not Active	Not Active	Not Active	Not Active	Not Active					
NC(=O)c1cnccn1 [PYRAZINAMIDE]	Not Active	Not Active	Not Active	Not Active	Not Active	Not Active	Not Active	Not Active						
O=C1CC[C@H](N2C(=O)c3ccccc3C2=O)C(=O)N1	Not Active	Not Active	Not Active	Not Active	Not Active	Not Active	Not Active	Not Active						
ClC(Cl)Cl [CHLOROFORM]	Not Active	Not Active	Not Active	Not Active	Not Active	Not Active	Not Active	Not Active						
CCc1c2c(nc3ccc(OC(=O)N4CCC(N5CCCCC5)CC4)cc13)-c1cc3c(c(=O)n1C2)COC(=O)[C@]3(O)CC [IRINOTECAN]	Not Active	Not Active	Not Active	Not Active	Not Active	Not Active	Not Active	Not Active						
CCCN(CCC)C(=O)C(CCC(=O)O)NC(=O)c1ccccc1 (stereo unspecified) [PROGLUMIDE]	Not Active	Not Active	Not Active	Not Active	Not Active	Not Active	Not Active	Not Active						
CCCC(CCC)C(=O)O [VALPROIC ACID]	Not Active	Not Active	Not Active	Not Active	Not Active	Not Active	Not Active	Not Active						
Cc1ccccc1C(=O)N1CCC(Cc2ccccc2)CC1	Not Active	Not Active	Not Active	Not Active	Not Active	Not Active	Not Active	Not Active						
CCCC(=O)Nc1ccc(OCC(O)CNC(C)C)c(C(C)=O)c1 (stereo unspecified) [ACEBUTOLOL]	Not Active	Not Active	Not Active	Not Active	Not Active	Not Active	Not Active	Not Active						
OC(CCN1CCCCC1)(c1ccccc1)C1CCCCC1 (stereo unspecified) [TRIHEXYPHENIDYL]	Not Active	Not Active	Not Active	Not Active	Not Active	Not Active	Not Active	Not Active						
Cc1ccc(S(=O)(=O)NC(=O)NN2CC3CCCC3C2)cc1 (stereo unspecified) [GLICLAZIDE]	Not Active	Not Active	Not Active	Not Active	Not Active	Not Active	Not Active	Not Active						
N=C(N)NC(=O)c1nc(Cl)c(N)nc1N [AMILORIDE]	Not Active	Not Active	Not Active	Not Active	Not Active	Not Active	Not Active	Not Active						
CC(C)(Oc1ccc(C2CCCc3ccccc32)cc1)C(=O)O (stereo unspecified) [NAFENOPIN]	Not Active	Not Active	Not Active	Not Active	Not Active	Not Active	Not Active	Not Active						
Cc1cc2cc3c(C)cc(=O)oc3c(C)c2o1 [TRIOXSALEN]	Not Active	Not Active	Not Active	Not Active	Not Active	Not Active	Not Active	Not Active						
Oc1ccc(OCc2ccccc2)cc1 [MONOBENZONE]	Not Active	Not Active	Not Active	Not Active	Not Active	Not Active	Not Active	Not Active						
O=C1CC2(CCCC2)CC(=O)N1CCCCN1CCN(c2ncccn2)CC1 [BUSPIRONE]	Not Active	Not Active	Not Active	Not Active	Not Active	Not Active	Not Active	Not Active						
COc1cccc2c1C(=O)c1c(O)c3c(c(O)c1C2=O)C[C@@](O)(C(=O)CO)C[C@@H]3O[C@H]1C[C@H](N)[C@@H](O)[C@H](C)O1 [EPIRUBICIN]	Not Active	Not Active	Not Active	Not Active	Not Active	Not Active	Not Active			5.18				
C#C[C@]1(O)CC[C@H]2[C@@H]3CCc4cc(OC)ccc4[C@H]3CC[C@@]21C [MESTRANOL]	Not Active	Not Active	Not Active	Not Active	Not Active	Not Active	Not Active	Not Active						
CN(C)c1ccc(C(=C2C=CC(=[N+](C)C)C=C2)c2ccc(N(C)C)cc2)cc1.[Cl-] [GENTIAN VIOLET]		Not Active	Not Active	Not Active	Not Active	Not Active	Not Active			2.15	4.07	3.23		
CC(=O)Nc1ccc(O)cc1 [ACETAMINOPHEN]	Not Active	Not Active	Not Active	Not Active	Not Active	Not Active	Not Active	Not Active						
CCCCN1CCCCC1C(=O)Nc1c(C)cccc1C.Cl (stereo unspecified) [BUPIVACAINE HYDROCHLORIDE]	Not Active	Not Active	Not Active	Not Active	Not Active	Not Active	Not Active	Not Active						
Nc1ccn([C@@H]2CS[C@H](CO)O2)c(=O)n1 [LAMIVUDINE]	Not Active	Not Active	Not Active	Not Active	Not Active	Not Active	Not Active	Not Active						
COP(=O)(OC)OC=C(Cl)Cl [DICHLORVOS]	Not Active	Not Active	Not Active	Not Active	Not Active	Not Active	Not Active	Not Active						
C[C@](O)(CS(=O)(=O)c1ccc(F)cc1)C(=O)Nc1ccc(C#N)c(C(F)(F)F)c1 [(R)-BICALUTAMIDE]	Not Active	Not Active	Not Active	Not Active	Not Active	Not Active	Not Active	Not Active						
Cc1nccn1CC1CCc2c(c3ccccc3n2C)C1=O (stereo unspecified) [ONDANSETRON]	Not Active	Not Active	Not Active	Not Active	Not Active	Not Active	Not Active	Not Active						
CCOC(=O)[C@H](CCc1ccccc1)N[C@H]1CCc2ccccc2N(CC(=O)O)C1=O [BENAZEPRIL]	Not Active	Not Active	Not Active	Not Active	Not Active	Not Active	Not Active	Not Active						
CCCCOc1ccc(OCCCN2CCOCC2)cc1 [PRAMOXINE]	Not Active	Not Active	Not Active	Not Active	Not Active	Not Active	Not Active	Not Active						
COc1cccc2c1C(=O)c1c(O)c3c(c(O)c1C2=O)C[C@@](O)(C(=O)CO)C[C@@H]3O[C@H]1C[C@H](N)[C@H](O)[C@H](C)O1 [DOXORUBICIN]	Not Active	Not Active	Not Active		Not Active	Not Active	Not Active						2.49	5.15
C[C@H]1C[C@H]2[C@@H]3CCC4=CC(=O)C=C[C@]4(C)[C@@]3(Cl)[C@@H](O)C[C@]2(C)[C@@]1(O)C(=O)CO [BECLOMETHASONE]	Not Active	Not Active	Not Active	Not Active	Not Active	Not Active	Not Active	Not Active						
